# Results reported in patent publication EP2970215B1, “PYRROLIDINE DERIVATIVES, PHARMACEUTICAL COMPOSITIONS CONTAINING THEM, AND THEIR USE IN THERAPY” (AbbVie Deutschland GmbH & Co. KG, priority 2013, dated 2014).
# Biological target: T1, human GlyT1c transporter (Homo sapiens, UniProt P48067)
# T1 construct: expressed in transfected cells; host or cells: CHO cells (recombinant; line hGlyT1c_5_CHO is named for the uptake assay)
# T1 sequence (P48067 1-706): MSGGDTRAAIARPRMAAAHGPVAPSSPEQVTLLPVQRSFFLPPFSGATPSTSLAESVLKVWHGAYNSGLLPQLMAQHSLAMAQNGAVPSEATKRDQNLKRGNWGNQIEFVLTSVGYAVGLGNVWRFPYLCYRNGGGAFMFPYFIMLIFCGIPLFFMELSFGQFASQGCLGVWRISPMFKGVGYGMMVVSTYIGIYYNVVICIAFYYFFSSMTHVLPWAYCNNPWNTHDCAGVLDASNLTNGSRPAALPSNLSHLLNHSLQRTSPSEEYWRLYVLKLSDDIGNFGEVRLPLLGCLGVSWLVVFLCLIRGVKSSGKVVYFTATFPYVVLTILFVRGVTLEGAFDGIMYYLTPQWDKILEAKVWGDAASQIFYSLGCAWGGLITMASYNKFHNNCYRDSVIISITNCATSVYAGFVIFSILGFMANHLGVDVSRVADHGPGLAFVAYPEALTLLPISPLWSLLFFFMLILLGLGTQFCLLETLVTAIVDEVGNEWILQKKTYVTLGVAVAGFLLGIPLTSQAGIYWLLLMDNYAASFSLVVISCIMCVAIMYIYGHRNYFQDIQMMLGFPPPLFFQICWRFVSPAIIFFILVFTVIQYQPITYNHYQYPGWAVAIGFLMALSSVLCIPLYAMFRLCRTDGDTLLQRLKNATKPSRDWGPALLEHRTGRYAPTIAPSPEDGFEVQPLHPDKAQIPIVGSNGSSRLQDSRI
# Experiment: Radioligand binding assay using recombinant CHO cell membranes expressing human GlyT1
# Conditions: radioligand binding to human GlyT1c transporter-expressing membranes
# Text: 2. Radioligand binding assays using recombinant CHO cell membranes expressing human GlyT1: […]
row,SMILES,Ki [µM]
1,"CCCS(=O)(=O)N1C[C@@H](Nc2cccc(C#N)c2)[C@H](c2ccccc2)C1 (relative stereo) [Example 132, 3-{[trans-4-phenyl-1-(propylsulfonyl)pyrrolidin-3-yl]amino}benzonitrile]",≤ 10
2,"CC(C)OCCNC(=O)[C@@H]1CN(S(=O)(=O)c2cn(C)cn2)C[C@H]1c1ccc(F)cc1 [Example 587, (3S,4R)-4-(4-fluorophenyl)-1-[(1-methyl-1H-imidazol-4-yl)sulfonyl]-N-[2-(propan-2-yloxy)ethyl]pyrrolidine-3-carboxamide]",≤ 10
3,"Cn1cnc(S(=O)(=O)N2C[C@@H](CNc3ccccc3)[C@H](c3ccc(F)cc3)C2)c1 (relative stereo) [Example 290, N-({trans-4-(4-fluorophenyl)-1-[(1-methyl-1H-imidazol-4-yl)sulfonyl]pyrrolidin-3-yl}methyl)aniline]",≤ 10
4,"Cn1cnc(S(=O)(=O)N2C[C@H](NCc3ccc(C4CCCCO4)s3)[C@@H](c3ccccc3)C2)c1 (stereo partly drawn) [Example 558, (3R,4S)-1-[(1-methyl-1H-imidazol-4-yl)sulfonyl]-4-phenyl-N-{[5-(tetrahydro-2H-pyran-2-yl)thiophen-2-yl]methyl}pyrrolidin-3-amine]",≤ 10
5,"Cn1cnc(S(=O)(=O)N2C[C@@H](NCc3cccc(C(F)(F)F)c3Cl)[C@H](c3ccc(F)cc3)C2)c1 (relative stereo) [Example 149, trans-N-[2-chloro-3-(trifluoromethyl)benzyl]-4-(4-fluorophenyl)-1-[(1-methyl-1H-imidazol-4-yl)sulfonyl]pyrrolidin-3-amine]",≤ 0.1
6,"Cn1cnc(S(=O)(=O)N2C[C@@H](Nc3ccc(F)cc3F)[C@H](c3ccccc3)C2)c1 (relative stereo) [Example 233, trans-N-(2,4-difluorophenyl)-1-[(1-methyl-1H-imidazol-4-yl)sulfonyl]-4-phenylpyrrolidin-3-amine]",≤ 10
7,"Cn1cnc(S(=O)(=O)N2C[C@@H](Nc3cccc(OC(F)(F)F)c3)[C@H](c3ccccc3)C2)c1 (relative stereo) [Example 226, trans-1-[(1-methyl-1H-imidazol-4-yl)sulfonyl]-4-phenyl-N-[3-(trifluoromethoxy)phenyl]pyrrolidin-3-amine]",≤ 0.01
8,"Cn1cnc(S(=O)(=O)N2C[C@@H](NC(=O)c3cccc(Cl)c3Cl)[C@H](c3ccccc3)C2)c1 (relative stereo) [Example 31, 2,3-dichloro-N-{trans-1-[(1-methyl-1H-imidazol-4-yl)sulfonyl]-4-phenylpyrrolidin-3-yl}benzamide]",≤ 1
9,"Cn1cnc(S(=O)(=O)N2C[C@@H](C(=O)Nc3cccc(C(F)(F)F)c3Cl)[C@H](c3ccc(F)cc3)C2)c1 (relative stereo) [Example 272, Trans-N-[2-chloro-3-(trifluoromethyl)phenyl] -4-(4-fluorophenyl)-1 - [(1-methyl-1H-imidazol-4-yl)sulfonyl]pyrrolidine-3-carboxamide]",≤ 1
10,"Cn1cnc(S(=O)(=O)N2C[C@H](Nc3cc(OCC4CCCN4)ncn3)[C@@H](c3ccc(F)cc3)C2)c1 (stereo partly drawn) [Example 780, N-{(3R,4S)-4-(4-fluorophenyl)-1-[(1-methyl-1H-imidazol-4-yl)sulfonyl]pyrrolidin-3-yl}-6-(pyrrolidin-2-ylmethoxy)pyrimidin-4-amine]",≤ 10
11,"Cc1cc(S(=O)(=O)N2CC(Nc3ccc(F)c(F)c3)C(c3ccccc3)C2)c(C)s1 (centres unmarked) [Example 517, N-(3,4-difluorophenyl)-1-[(2,5-dimethylthiophen-3-yl)sulfonyl]-4-phenylpyrrolidin-3-amine]",≤ 10
12,"O=S(=O)(c1ccc2c(c1)CCO2)N1CC(Nc2ccc(F)c(F)c2)C(c2ccccc2)C1 (centres unmarked) [Example 519, N-(3,4-difluorophenyl)-1-(2,3-dihydro-1-benzofuran-5-ylsulfonyl)-4-phenylpyrrolidin-3-amine]",> 10
13,"Cn1cnc(S(=O)(=O)N2C[C@@H](Nc3cc(C#N)ccc3F)[C@H](c3ccccc3)C2)c1 (relative stereo) [Example 76, 4-fluoro-3-({trans-1-[(1-methyl-1H-imidazol-4-yl)sulfonyl]-4-phenylpyrrolidin-3-yl}amino)benzonitrile]",≤ 10
14,"CCS(=O)(=O)N1C[C@@H](NC(=O)c2cccc(C(F)(F)F)c2Cl)[C@H](c2ccccc2)C1 (relative stereo) [Example 124, 2-chloro-N-[trans-1-(ethylsulfonyl)-4-phenylpyrrolidin-3-yl]-3-(trifluoromethyl)benzamide]",≤ 10
15,"Cn1cnc(S(=O)(=O)N2C[C@@H](CO)[C@H](c3ccc(F)cc3)C2)c1 (relative stereo) [Example 206, {Trans-4-(4-fluorophenyl)-1-[(1-methyl-1H-imidazol-4-yl)sulfonyl]pyrrolidin-3-yl}methanol]",≤ 10
16,"Cn1cnc(S(=O)(=O)N2C[C@@H](Nc3ccc(F)c(Cl)c3)[C@H](c3ccccc3Cl)C2)c1 (relative stereo) [Example 257, trans-N-(3-chloro-4-fluorophenyl)-4-(2-chlorophenyl)-1-[(1-methyl-1H-imidazol-4-yl)sulfonyl]pyrrolidin-3-amine]",≤ 0.1
17,"Cn1cnc(S(=O)(=O)N2C[C@H](NCCOc3ccc(F)cc3)[C@@H](c3ccc(F)cc3)C2)c1 [Example 667, (3R,4S)-N-[2-(4-fluorophenoxy)ethyl]-4-(4-fluorophenyl)-1-[(1-methyl-1H-imidazol-4-yl)sulfonyl]pyrrolidin-3-amine]",≤ 0.1
18,"Cn1cnc(S(=O)(=O)N2C[C@@H](NC(=O)c3cccc(C(F)(F)F)c3Cl)[C@H](c3ccc(Cl)cc3)C2)c1 (relative stereo) [Example 13, 2-chloro-N-{trans-4-(4-chlorophenyl)-1-[(1-methyl-1H-imidazol-4-yl)sulfonyl]pyrrolidin-3-yl}-3-(trifluoromethyl)benzamide]",≤ 1
19,"COCCCN[C@H]1CN(S(=O)(=O)c2cn(C)cn2)C[C@@H]1c1ccccc1 [Example 588, (3R,4S)-N-(3-methoxypropyl)-1-[(1-methyl-1H-imidazol-4-yl)sulfonyl]-4-phenylpyrrolidin-3-amine]",≤ 10
20,"CCCCCN[C@H]1CN(S(=O)(=O)c2cn(C)cn2)C[C@@H]1c1ccc(F)cc1 [Example 664, (3R,4S)-4-(4-fluorophenyl)-1-[(1-methyl-1H-imidazol-4-yl)sulfonyl]-N-pentylpyrrolidin-3-amine]",≤ 0.1
21,"Cn1cnc(S(=O)(=O)N2C[C@@H](Nc3ccc(F)c(Cl)c3)[C@H](c3ccc(F)cc3)C2)c1 [Example 387, (3S,4R)-N-(3-chloro-4-fluorophenyl)-4-(4-fluorophenyl)-1-[(1-methyl-1H-imidazol-4-yl)sulfonyl]pyrrolidin-3-amine]",≤ 10
22,"Cn1cnc(S(=O)(=O)N2C[C@@H](NCc3ccc(Cl)cc3Cl)[C@H](c3ccc(F)cc3)C2)c1 (relative stereo) [Example 279, trans-N-(2,4-dichlorobenzyl)-4-(4-fluorophenyl)-1-[(1-methyl-1H-imidazol-4-yl)sulfonyl]pyrrolidin-3-amine]",≤ 10
23,"Cn1cnc(S(=O)(=O)N2CC(c3ccc(F)cc3)C(c3ccc(Cl)cc3)C2)c1 (centres unmarked) [Example 340, 4-{[3-(4-chlorophenyl)-4-(4-fluorophenyl)pyrrolidin-1-yl]sulfonyl}-1-methyl-1H-imidazole]",≤ 1
24,"CCCCCCN[C@H]1CN(S(=O)(=O)c2cn(C)cn2)C[C@@H]1C1CCCCO1 (stereo partly drawn) [Example 679, (3R,4S)-N-hexyl-1-[(1-methyl-1H-imidazol-4-yl)sulfonyl]-4-(tetrahydro-2H-pyran-2-yl)pyrrolidin-3-amine]",≤ 1
25,"Cn1cnc(S(=O)(=O)N2C[C@@H](Nc3ccccc3)[C@H](c3ccccc3F)C2)c1 (relative stereo) [Example 198, trans-4-(2-fluorophenyl)-1-[(1-methyl-1H-imidazol-4-yl)sulfonyl]-N-phenylpyrrolidin-3-amine]",≤ 1
26,"Cn1cnc(S(=O)(=O)N2C[C@H](Nc3cnc(N4CCCC4)cn3)[C@@H](c3ccccc3)C2)c1 [Example 413, N-{(3R,4S)-1-[(1-methyl-1H-imidazol-4-yl)sulfonyl]-4-phenylpyrrolidin-3-yl}-5-(pyrrolidin-1-yl)pyrazin-2-amine]",≤ 10
27,"CC(CN[C@H]1CN(S(=O)(=O)c2cn(C)cn2)C[C@@H]1c1ccccc1)C(F)(F)F (stereo partly drawn) [Example 566, (3R,4S)-1-[(1-methyl-1H-imidazol-4-yl)sulfonyl]-4-phenyl-N-(3,3,3-trifluoro-2-methylpropyl)pyrrolidin-3-amine]",≤ 10
28,"CCC(CC)CN[C@H]1CN(S(=O)(=O)c2cn(C)cn2)C[C@@H]1c1ccccc1 [Example 449, (3R,4S)-N-(2-ethylbutyl)-1-[(1-methyl-1H-imidazol-4-yl)sulfonyl]-4-phenylpyrrolidin-3-amine]",≤ 1

# Same assay, conditions: radioligand binding, recombinant CHO cell membranes expressing human GlyT1c
row,SMILES,Ki [µM]
1,"Cn1cnc(S(=O)(=O)N2C[C@@H](Nc3cccc(Cl)c3)[C@H](C3CCCO3)C2)c1 (relative stereo) [Example 850, Trans-N-(3-chlorophenyl)-1 - [(1-methyl-1H-imidazol-4-yl)sulfonyl] -4-(tetrahydrofuran-2-yl)pyrrolidin-3-amine]",≤ 1
